Columns and labels:
[1] = molecular target: T1, AMAN-2 (Golgi α-mannosidase) (Caenorhabditis elegans, UniProt Q2PJ74); experiment: α-mannosidase inhibition assay with pNP-Man, AMAN-2; type: biochemical; settings: for SI^b = IC50(JBMan)/IC50(AMAN-2): selectivity index
T1 sequence (Q2PJ74 27-1145): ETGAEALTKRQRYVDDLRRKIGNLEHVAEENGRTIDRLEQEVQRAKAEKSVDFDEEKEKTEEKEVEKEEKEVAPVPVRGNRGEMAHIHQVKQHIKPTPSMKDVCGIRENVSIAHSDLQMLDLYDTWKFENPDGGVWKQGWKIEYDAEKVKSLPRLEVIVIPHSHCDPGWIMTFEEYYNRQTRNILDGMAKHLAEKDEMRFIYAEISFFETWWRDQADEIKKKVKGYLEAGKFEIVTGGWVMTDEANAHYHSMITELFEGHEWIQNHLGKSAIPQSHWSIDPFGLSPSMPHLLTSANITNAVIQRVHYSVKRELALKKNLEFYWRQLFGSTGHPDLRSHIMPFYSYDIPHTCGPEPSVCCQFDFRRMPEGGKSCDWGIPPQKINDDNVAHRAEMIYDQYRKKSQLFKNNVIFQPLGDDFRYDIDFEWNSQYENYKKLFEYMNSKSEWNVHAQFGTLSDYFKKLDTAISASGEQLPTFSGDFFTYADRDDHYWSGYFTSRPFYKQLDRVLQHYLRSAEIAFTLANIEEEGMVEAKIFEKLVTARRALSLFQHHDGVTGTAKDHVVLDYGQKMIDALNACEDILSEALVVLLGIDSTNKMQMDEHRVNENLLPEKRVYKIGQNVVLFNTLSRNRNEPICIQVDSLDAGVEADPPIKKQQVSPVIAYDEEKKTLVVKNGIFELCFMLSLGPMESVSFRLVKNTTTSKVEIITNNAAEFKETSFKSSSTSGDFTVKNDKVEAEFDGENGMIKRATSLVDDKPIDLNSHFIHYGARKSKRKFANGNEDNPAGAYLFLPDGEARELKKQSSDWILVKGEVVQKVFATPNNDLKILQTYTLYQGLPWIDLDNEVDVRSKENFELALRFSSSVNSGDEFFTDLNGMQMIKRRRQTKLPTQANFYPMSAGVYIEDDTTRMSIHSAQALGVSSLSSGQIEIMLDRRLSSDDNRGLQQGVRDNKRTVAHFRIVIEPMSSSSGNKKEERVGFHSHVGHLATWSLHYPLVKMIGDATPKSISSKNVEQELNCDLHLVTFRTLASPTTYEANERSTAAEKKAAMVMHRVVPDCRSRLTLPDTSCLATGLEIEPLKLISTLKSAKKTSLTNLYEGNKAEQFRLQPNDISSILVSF

[2] = molecular target: T2, GMIIb (Golgi α-mannosidase) (Drosophila melanogaster, UniProt Q9VF33); experiment: α-mannosidase inhibition assay with pNP-Man, GMIIb; type: biochemical; settings: for SI^a = IC50(LManII)/IC50(GMIIb): selectivity index
T2 sequence (Q9VF33 31-1249): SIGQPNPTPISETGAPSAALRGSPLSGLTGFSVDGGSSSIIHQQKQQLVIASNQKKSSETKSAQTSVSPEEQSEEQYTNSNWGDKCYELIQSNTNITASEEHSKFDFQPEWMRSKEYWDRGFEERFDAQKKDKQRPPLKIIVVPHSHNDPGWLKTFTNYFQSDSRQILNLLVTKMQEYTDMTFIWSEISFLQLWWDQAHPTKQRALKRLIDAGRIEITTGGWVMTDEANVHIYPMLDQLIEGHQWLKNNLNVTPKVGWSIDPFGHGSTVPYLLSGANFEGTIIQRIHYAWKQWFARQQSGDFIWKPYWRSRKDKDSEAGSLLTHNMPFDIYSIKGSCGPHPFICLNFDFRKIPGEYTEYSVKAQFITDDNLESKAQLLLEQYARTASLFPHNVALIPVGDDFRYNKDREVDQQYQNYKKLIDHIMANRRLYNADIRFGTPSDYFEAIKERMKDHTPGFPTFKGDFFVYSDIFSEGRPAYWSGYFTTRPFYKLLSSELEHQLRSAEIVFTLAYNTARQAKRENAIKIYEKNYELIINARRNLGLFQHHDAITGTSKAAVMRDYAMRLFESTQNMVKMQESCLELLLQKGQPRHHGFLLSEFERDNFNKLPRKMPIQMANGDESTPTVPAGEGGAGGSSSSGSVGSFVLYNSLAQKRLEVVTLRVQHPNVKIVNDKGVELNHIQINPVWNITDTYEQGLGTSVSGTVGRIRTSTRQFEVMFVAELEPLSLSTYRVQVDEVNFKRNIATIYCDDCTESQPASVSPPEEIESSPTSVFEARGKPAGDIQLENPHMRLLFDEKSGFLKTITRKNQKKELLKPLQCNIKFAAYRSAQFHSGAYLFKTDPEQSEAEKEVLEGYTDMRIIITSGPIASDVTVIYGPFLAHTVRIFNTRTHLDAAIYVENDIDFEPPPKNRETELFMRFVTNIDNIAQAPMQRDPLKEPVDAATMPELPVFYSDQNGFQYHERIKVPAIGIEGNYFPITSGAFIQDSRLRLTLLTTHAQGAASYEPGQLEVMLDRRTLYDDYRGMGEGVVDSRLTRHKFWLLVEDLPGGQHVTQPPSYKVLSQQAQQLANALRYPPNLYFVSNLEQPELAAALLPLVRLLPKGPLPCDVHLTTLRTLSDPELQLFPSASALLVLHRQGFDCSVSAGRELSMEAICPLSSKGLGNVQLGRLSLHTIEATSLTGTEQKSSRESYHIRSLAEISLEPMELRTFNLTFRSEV

[3] = test system: dGMII (Golgi α-mannosidase II); settings: previous pKa calculations; cited from earlier work
[4] = in aqueous solution; cited from earlier work

Structure (SMILES) | SI^b = IC50(JBMan)/IC50(AMAN-2) [1] | SI^a = IC50(LManII)/IC50(GMIIb) [2] | Ki ([1]; read-out: Ki AMAN-2, Dixon plots, pNP-Man 0.5-4 mM, pH 6.0) | Ki ([2]; read-out: Ki GMIIb, Dixon plots, pNP-Man 0.5-4 mM, pH 6.0) | pKa bound in complex with dGMII [3] | pKa [4]
Cl.OC[C@H]1NC[C@@H](O)[C@H]1O [Compound 6, 1,4-Dideoxy-1,4-imino-d-lyxitol hydrochloride] | 5 | 8 | – | – | – | –
OC[C@@H](O)[C@H]1NC[C@@H](O)[C@H]1O [DIM, 1,4-dideoxy-1,4-imino-D-mannitol, reference compound] | 1 | 13 | 680 nM | 130 nM | – | –
O[C@H]1[C@H]2[C@H](O)CCCN2C[C@H]1O [Swainsonine, (1S,2R,8R,8aR)-trihydroxy-indolizidine] | – | – | – | – | 5.0 | 7.5

Reference: paper PMC7614232 (Organic & biomolecular chemistry, 2022)
